From ChEMBL document CHEMBL1134842, “Mononuclear platinum(II) complex with 2-phenylpyridine ligands showing high cytotoxicity against mouse sarcoma 180 cells acquiring high cisplatin resistance” (J Med Chem, 2001)

Assays:
[1] = Cytotoxicity against S-180cisR cells by MTT assay.; assay type: functional, cell-based, Mus musculus
[2] = Cytotoxicity against S-180 cells by MTT assay.; assay type: functional, cell-based, Mus musculus

Row | Substance | IC50 [1] [µM] | IC50 [2] [µM]
1 | cis-[PtCl2(NH3)(2-C6H5CH2C5H4N)] | 49 | 
2 | cis-[PtCl2(NH3)(2-CH3C5H4N)] | 49 | 
3 | cis-[PtCl(2-C6H4C5H4)(2-C6H5C5H4N)] | 8.6 | 3.1
4 | cis-[PtCl2(NH3)(3-CH3C5H4N)] | 49 | 
5 | cis-[PtCl2(NH3)(3-CH3CH2C5H4N)] | 49 | 
6 | CISPLATIN | 59 | 2.4
